Assay results published in patent US7292944B2, “Establishment of biological cut-off values for predicting resistance to therapy” (priority 2000, dated 2007).

Tested on: HIV
Assay: Antivirogram phenotypic drug susceptibility of untreated patient samples relative to laboratory wild type standard virus
Format: cell-based
Conditions: for effect of the change in cut-off value on the decision concerning resistance of the samples: new versus old cut-off value (FIG. 4, FIG. 5)
Excerpt: In one embodiment, the biological cut-off values may be used in concert with direct phenotype assays, for example, Antivirogram™ (Virco, Inc.; WO 97/27480, U.S. Pat. No. 6,221,578 incorporated herein by reference). This assay is a phenotypic resistance assay that measures, in controlled laboratory conditions, the level of resistance of the HIV derived from an individual patient to each of the anti-HIV therapies currently available. The resistant ‘behavior’ of the virus may be the combined result of the effects of many different mutations and the complex interactions between them, including genetic changes that have not even been identified yet. In other words, it is a direct measure of resistance.
The test provides a quantitative measure of viral resistance to all the available drugs. This is expressed in terms of the IC50. This is then compared to the IC50 for fully sensitive, non-mutated ‘wild-type’ virus. The resistance of the sampled virus to each therapy is then expressed in terms of a fold-change in IC50 compared to wild type. The report enables physicians to identify the therapy(s) that are no longer active and helps in the selection of the optimal combination of drugs for the individual patient.
Drug susceptibility of approximately 1000 geographically diverse untreated patient samples was determined for all currently approved antiretrovirals using the Antivirogram™ assay. […] The fold change in sensitivity of the samples to a drug is also termed the fold resistance of the samples to the drug. The 2×SD value for each drug was used as the cut-off between sensitive (within normal susceptibile range) and resistant (above normal susceptible range). […] FIG. 1 represents an example of such an analysis for a single antiviral drug. These varied between 3-4.5 fold for the nucleosides, 6-10 fold for the NNRTIs and 2.5-4 fold for the PIs.

Compound | effect of the change in cut-off value on the decision concerning resistance of the samples | biological cut-off value (2×SD of fold change in sensitivity / fold resistance) (approximately 1000 untreated patient samples, new cut-off between sensitive and resistant, old cut-off was 4 fold) [fold]
Cc1cn([C@H]2C=C[C@@H](CO)O2)c(=O)[nH]c1=O [d4T] | doubling of the number of resistant sample | 
CC(C)Nc1cccnc1N1CCN(C(=O)c2cc3cc(NS(C)(=O)=O)ccc3[nH]2)CC1 [delavirdine] | did not actually affect the decision of many samples | 10
